How the values were obtained:
[1] = system: apoptotic neurons in L5 dorsal root ganglions; experiment: Neuronal apoptosis after sciatic nerve axotomy in the neonatal rat (TUNEL combined with Hoechst 33342 and immunohistochemistry); type: in vivo; conditions: single pre-emptive injection 10 mg/kg s/c, observed at 24 hours, vs vehicle treated controls
Procedure: Newborn animals received a single pre-emptive injection of R(−)-2,4-diamino-5-(2,3-dichlorophenyl)-6-fluoromethyl pyrimidine, substantially free of the corresponding S(+)enantiomer (4030W92) (10 mg/kg, s/c). Twenty minutes later the animals were anaesthetised by hypothermia, the nerve exposed and transected at the mid thigh level. The extent of neuronal and glial apoptosis was investigated using the TUNEL technique combined with Hoechst 33342 (Sigma) and immunohistochemistry. The ipsilateral and contralateral L5 dorsal root ganglions were compared and the 4030W92 treated group was compared to vehicle treated controls and to animals that received an injection of 4030W92 alone, ie. no nerve transection.

[2] = system: sensory neuronal apoptosis; experiment: Apoptosis in L4 and L5 dorsal root ganglia after chronic constriction injury (CCI), Hoechst 33342 staining; type: in vivo, rat; conditions: for number of neurones undergoing apoptosis (FIG. 2): CCI rats, 10 mg/kg, time points day 7, 21 and 30, vs vehicle treated animals; for sensory neuronal apoptosis / glial apoptosis: adult male CCI rats; for sensory neuronal apoptosis: 10 mg/kg dosed day 12 to day 25, at day 30 post surgery; for glial apoptosis: 10 mg/kg dosed day 12 to day 25, results not shown
Procedure: Adult male random hooded rats were either chronic constriction injury (CCI) or sham operated at day 0. Dosing with vehicle, 4030W92 (10 mg/kg) or 4082W92 (10 mg/kg) was from day 12 to day 25. At time points 7, 14, 21, 27 and 30 days post surgery animals (n=3 per group except for naives) were sacrificed by exsanguination after behavioural testing as described below. Naive animals were all sacrificed 30 days post surgery. L4 and L5 dorsal root ganglias were removed and placed in a freezing medium for sectioning. Sections (14 μm) were cut using a freezing cryostat (Leica) and placed on poly (L) lysine coated slides. These were post-fixed in 4% paraformaldehyde (Sigma) for 20 minutes, dehydrated through alcohol and kept at −80° until required. On the day of staining, the sections were rehydrated through alcohol and placed in phosphate buffered saline (PBS) for at least 15 minutes. They were incubated with the fluorescent nuclear stain Hoechst 33342 (1 μg/ml) (Sigma) for 4 minutes and then washed extensively with PBS. After drying, the slides were mounted with Vectashield mounting medium (Vector Labs) and coverslipped. The slides could be kept in the dark for up to 6 weeks without fading.
The sections were studied under the microscope (Leica) at 400× for morphological signs of apoptosis—nuclear condensation, membrane blebbing and presence of apoptotic bodies (Trump 1997 supra). Cells were assigned as neurones or glia depending on their size, location, and general morphology. Four fields from each section were selected at random, the number of apoptotic cells and total number of cells was counted in each and then mean figures for each group were calculated. This analysis was carried out blind. […] Glial apoptosis was unaffected (results not shown).

[3] = system: mechanical hypersensitivity; experiment: CCI-induced decrease in mechanical paw withdrawal threshold (algesymeter); type: in vivo, rat; conditions: CCI rats, drug administered from day 12, algesymeter
Description: (§1) Under isoflurane anaesthesia, the common left sciatic nerve of male Random Hooded rats (180-200 g) was exposed at mid-thigh level. Four ligatures of chromic gut (4.0) were tied loosely around the nerve with a 1 mm spacing between each. The wound was then closed and secured with suture clips. The surgical procedure was identical for the sham operated animals except the sciatic nerve was not ligated. The rats were allowed a period of seven days to recover from the surgery before behavioural testing began.
The effect on Chronic Constriction Injury-induced decrease in mechanical paw withdrawal threshold was measured using an algesymeter (Randall L O, Selitto J J. A method for measurement of analgesic activity on inflamed tissue. Arch. Int. Pharmacodyn. 1957; 61:409-419). In brief, from 7 days post surgery onwards every 2 or 3 days the animals were tested for mechanical hypersensitivity by applying an increasing weight (16 gram per second) to the dorsal surface of each hindpaw until the rat attempted to remove the paw. The increasing weight was halted at this point and the weight recorded and expressed as mechanical paw withdrawal threshold. The maximum weight applied in this model was 250 gram. Drug was administered once the hypersensitivity was maximal which in this case was at day 12.

mechanical allodynia = experiment: CCI mechanical allodynia, Von Frey Hair monofilaments; type: in vivo, rat; conditions: CCI rats, drug administered from day 12, Von Frey Hair monofilaments
Description: as §1
The presence of mechanical allodynia was assessed using Von Frey Hair monofilaments (range:4.19-84.96 g). The rats were lightly restrained and placed upon a metal grid floor. The monofilaments were applied to the plantar surface of the hindpaws from below the grid. The lowest monofilament to produce a withdrawal was the response recorded.

[4] = system: motorneuronal apoptotic cell death; conditions: after neonatal axotomy; cited from earlier work

SMILES	number of apoptotic neurons [1]	number of neurones undergoing apoptosis (FIG. 2) [2]	sensory neuronal apoptosis [2]	glial apoptosis [2]	mechanical paw withdrawal threshold [3]	Von Frey withdrawal threshold (mechanical allodynia) (mechanical allodynia)	motorneuronal apoptotic cell death [4]
Nc1nc(N)c(-c2cccc(Cl)c2Cl)c(CF)n1 (atropisomer, axis not shown) [4030W92, R(−)-2,4-diamino-5-(2,3-dichlorophenyl)-6-fluoromethyl pyrimidine]	significant reduction in the number of apoptotic neurons	decreases	significantly reduced sensory neuronal apoptosis	unaffected	significantly reversed the reduction in thresholds	significantly reversed the reduction in thresholds	–
Nc1nc(N)c(-c2cccc(Cl)c2Cl)c(CF)n1 [4082W92, S(+)-2,4-diamino-5-(2,3-dichlorophenyl)-6-fluoromethylpyrimidine]	–	decreases	significantly reduced sensory neuronal apoptosis	unaffected	–	–	–
Nc1nnc(-c2cccc(Cl)c2Cl)c(N)n1 [lamotrigine, 3,5-diamino-6-(2,3-dichlorophenyl)-1,2,4-triazine]	–	–	–	–	–	–	can prevent motorneuronal apoptotic cell death

From US6548507B1, “Medical use” (SmithKline Beecham Corporation, priority 1999, dated 2003)
